Measured values taken from ChEMBL document CHEMBL5050844 (2019).

What was measured:
Type in all cases: functional, T cell line
[1] = Induction of anti-CD3/CD28 antibodies-stimulated human T cell activation at 4 uM assessed fold increase in IL-2 secretion measured by ELISA assay
[2] = Induction of anti-CD3/CD28 antibodies-stimulated human T cell activation at 1 uM assessed fold increase in IL-2 secretion measured by ELISA assay
[3] = Induction of anti-CD3/CD28 antibodies-stimulated human T cell activation at 0.3 uM assessed fold increase in IL-2 secretion measured by ELISA assay
[4] = Induction of anti-CD3 antibodies-stimulated human T cell activation at 8 uM assessed fold increase in IL-2 secretion measured by ELISA assay; further: reference of the scale not given here
[5] = Induction of anti-CD3 antibodies-stimulated human T cell activation at 1 uM assessed fold increase in IL-2 secretion measured by ELISA assay; further: reference of the scale not given here
[6] = Induction of anti-CD3/CD28 antibodies-stimulated human T cell activation at 4 uM assessed fold increase in CD25 expression measured by ELISA assay
[7] = Induction of anti-CD3/CD28 antibodies-stimulated human T cell activation at 1 uM assessed fold increase in CD25 expression measured by ELISA assay
[8] = Induction of anti-CD3/CD28 antibodies-stimulated human T cell activation at 0.3 uM assessed fold increase in CD25 expression measured by ELISA assay
[9] = Induction of anti-CD3 antibodies-stimulated human T cell activation at 8 uM assessed fold increase in CD25 expression measured by ELISA assay; further: reference of the scale not given here
[10] = Induction of anti-CD3 antibodies-stimulated human T cell activation at 1 uM assessed fold increase in CD25 expression measured by ELISA assay; further: reference of the scale not given here

SMILES	fold change (FC) [1]	fold change (FC) [2]	fold change (FC) [3]	fold change (FC) [4]	fold change (FC) [5]	fold change (FC) [6]	fold change (FC) [7]	fold change (FC) [8]	fold change (FC) [9]	fold change (FC) [10]
C[C@H](Sc1nncn1C)c1cccc(NC(=O)c2cc(C(F)(F)F)cc(C3CC3)n2)c1	1.01	<=1	<=1	<=0.05	<=0.05	1.31	1.01	1.01	<=0.6	<=0.6
C[C@H](Sc1nncn1C)c1cccc(NC(=O)c2cc3cc(OCC(=O)NCCN)ccc3cn2)c1.Cl	1.01	<=1	<=1	<=0.05	<=0.05	1.01	<=1	<=1	0.601	0.601
C[C@H](Cc1nncn1C)c1cccc(N2Cc3c(cc([C@@H]4CCCNC4)cc3C(F)(F)F)C2=O)c1	5	5	2.51	>=0.201	0.101	1.51	1.31	1.01	>=1.001	0.601
C[C@H](Cc1nncn1C)c1cccc(NC(=O)c2cc(O[C@H]3CC[C@@H](O)C3)ccn2)c1	2.51	1.01	1.01	0.051	<=0.05	1.01	1.01	1.01	0.801	0.801
Cn1cnnc1C(F)(F)[C@](C)(F)c1cccc(N2Cc3c(cc(C(=O)N4CC(C(F)F)C4)cc3C(F)(F)F)C2=O)c1	1.01	1.01	1.01	0.051	0.051	1.01	1.01	1.01	0.801	0.601
C[C@H](Cc1nncn1C)c1cccc(NC(=O)c2cc(C(=O)N3CC[C@](C)(O)C3)ccn2)c1	<=1	<=1	<=1	<=0.05	<=0.05	1.51	1.31	1.51	<=0.6	<=0.6
C[C@H](Cc1nncn1C)c1cccc(N2Cc3c(cc(C4CC4)nc3C3CC3)C2=O)c1	5	1.01	1.01	>=0.201	0.051	>=1.76	1.01	1.01	0.801	0.601
C[C@H](Cc1nncn1C)c1cccc(N2Cc3c(ccnc3C(F)(F)F)C2=O)c1	5	2.51	1.01	>=0.201	0.101	1.01	1.01	1.01	>=1.001	0.801
Cn1cnnc1C(F)[C@](C)(F)c1cccc(N2Cc3c(cccc3C(F)(F)F)C2=O)c1 (single isomer, unassigned)	<=1	<=1	<=1	0.051	<=0.05	1.01	<=1	<=1	0.601	<=0.6
C[C@H](Cc1nncn1C1CC1)c1cccc(N2Cc3c(cccc3C(F)(F)F)C2=O)c1	1.01	1.01	<=1	<=0.05	<=0.05	1.01	1.01	1.01	0.801	0.601
C[C@H](Cc1nncn1C)c1cccc(NC(=O)c2[nH]nc3c2CCCC3)c1	1.01	1.01	1.01	0.051	0.051	1.01	1.01	1.01	0.801	0.601
C[C@H](Sc1nncn1C)c1cccc(NC(=O)c2cc(C3(O)COC3)cc(C(F)(F)F)n2)c1	<=1	<=1	<=1	<=0.05	<=0.05	1.01	1.01	<=1	0.601	<=0.6
C[C@H](Cc1nncn1C)c1cc(NCCO)nc(N2Cc3c(cccc3C(F)(F)F)C2=O)c1	2.51	1.01	1.01	0.151	0.051	1.01	1.01	1.01	>=1.001	0.601
C[C@H](Sc1nncn1C)c1cccc(NC(=O)c2cc3ccccc3cn2)c1	1.01	1.01	1.01	0.051	<=0.05	1.01	1.01	1.01	<=0.6	<=0.6
C[C@@H](c1cccc(N2Cc3c(cccc3C(F)(F)F)C2=O)c1)[C@H](F)c1nncn1C (relative stereo)	2.51	2.51	2.51	>=0.201	0.101	1.01	1.01	1.01	0.801	0.601
C[C@H](Cc1nncn1C)c1cc(OCCO)nc(N2Cc3c(cccc3C(F)(F)F)C2=O)c1	2.51	1.01	1.01	>=0.201	0.051	1.31	1.01	1.01	>=1.001	0.601
C[C@H](Cc1nncn1C)c1cccc(NC(=O)c2cc(C3(O)COC3)cc(C(F)(F)F)n2)c1	5	1.01	<=1	0.101	<=0.05	>=1.76	>=1.76	>=1.76	>=1.001	0.601
CC(C)c1cccc(C(=O)Nc2cccc([C@H](C)Sc3nncn3C)c2)n1	>=7.5	2.51	2.51	<=0.05	<=0.05	1.01	1.01	1.01	0.801	<=0.6
Cc1ccc(C(=O)Nc2cccc(C(C)C(F)(F)c3nncn3C)c2)nc1C1CC1 (stereo not given)	2.51	1.01	1.01	0.101	0.051	1.01	<=1	<=1	>=1.001	0.801
C[C@H](Sc1nncn1C)c1cccc(NC(=O)c2cccc(S(C)(=O)=O)n2)c1	1.01	1.01	<=1	<=0.05	<=0.05	1.01	1.01	1.01	<=0.6	<=0.6
Cc1cc(C(=O)Nc2cccc([C@H](C)Cc3nncn3C)c2)nc2ccnn12	5	1.01	1.01	>=0.201	0.101	1.31	1.01	1.01	>=1.001	0.601
Cc1ccc(C(=O)Nc2cccc([C@H](C)Cc3nnc[nH]3)c2)nc1C1CC1	1.01	1.01	1.01	<=0.05	<=0.05	>=1.76	1.51	1.51	<=0.6	<=0.6
